Results published in patent publication US12428406B2 (PMV Pharmaceuticals, Inc., priority 2019, dated 2025).

Molecular target: T1, p53 Y220C (Homo sapiens, UniProt P04637, Y220C)
T1 construct: The recombinant protein was a truncation mutant containing only amino acids 94-312 of p53; made in house; host or cells: E. coli
Assay: In vitro DNA binding activity assay (HTRF / TR-FRET): stabilization of p53 Y220C and increase of its DNA binding activity
Type: biochemical
Details: recombinant His-tagged p53 Y220C DNA binding domain (aa 94-312), biotin-labeled consensus DNA, incubated at 27° C. or 29° C. for 60 min
Outline: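 Compounds from 4.5 mM DMSO stocks, 3-fold serial dilutions; room-temperature incubations of 15 and 20 min. SC150 = concentration raising DNA binding by 50% over no-compound control.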

T1 sequence (P04637 94-312, change not shown): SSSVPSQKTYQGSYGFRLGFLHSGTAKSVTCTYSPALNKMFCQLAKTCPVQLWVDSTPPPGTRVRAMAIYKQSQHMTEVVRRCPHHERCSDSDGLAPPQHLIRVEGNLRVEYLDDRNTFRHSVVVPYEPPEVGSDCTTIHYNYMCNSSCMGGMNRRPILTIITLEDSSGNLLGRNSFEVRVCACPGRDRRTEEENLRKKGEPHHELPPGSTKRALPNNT

| SC150 (concentration of the compound required to increase the DNA binding activity by 50%) | Structure (SMILES) |
| --- | --- |
| + (+ = 0 μM ≤ SC150 < 0.05 μM) | COC(=O)c1ccc(NCC#Cc2cc3c(N[C@H]4CCN(C[C@@H](C)O)C[C@H]4F)cccc3n2CC(F)(F)F)c(OC)c1 [Compound 905A, methyl 4-{[3-(4-{[(3R,4S)-3-fluoro-1-(2-hydroxypropyl)piperidin-4-yl]amino}-1-(2,2,2-trifluoroethyl)-1H-indol-2-yl)prop-2-yn-1-yl]amino}-3-methoxybenzoate] |
| + (+ = 0 μM ≤ SC150 < 0.05 μM) | COC(=O)c1ccc(NCC#Cc2cc3c(N[C@H]4CCN(C)C[C@H]4F)cccc3n2CC(F)(F)F)c(OC)c1 (racemic) [Compound 778A, rac-methyl 4-{[3-(4-{[(3R,4S)-3-fluoro-1-methylpiperidin-4-yl]amino}-1-(2,2,2-trifluoroethyl)-1H-indol-2-yl)prop-2-yn-1-yl]amino}-3-methoxybenzoate] |
| + (+ = 0 μM ≤ SC150 < 0.05 μM) | CNC(=O)c1cc(OC)c(NCC#Cc2cc3c(NC4CCN(C)CC4)cccc3n2CC(F)(F)F)cc1F [Compound 516A, 2-fluoro-5-methoxy-N-methyl-4-[(3-{4-[(1-methylpiperidin-4-yl)amino]-1-(2,2,2-trifluoroethyl)-1H-indol-2-yl}prop-2-yn-1-yl)amino]benzamide] |
| + (+ = 0 μM ≤ SC150 < 0.05 μM) | CCC(=O)NS(=O)(=O)c1ccc(NCC#Cc2cc3c(NC4CCN(CC(COC(=O)CC)OC(=O)CC)CC4)cccc3n2CC(F)(F)F)c(OC)c1 (stereo not shown) [Compound 628A, 1-(4-{[2-(3-{[2-methoxy-4-(propanamidosulfonyl)phenyl]amino}prop-1-yn-1-yl)-1-(2,2,2-trifluoroethyl)-1H-indol-4-yl]amino}piperidin-1-yl)-3-(propanoyloxy)propan-2-yl propanoate] |
| + (+ = 0 μM ≤ SC150 < 0.05 μM) | COc1cc(S(=O)(=O)NC(C)=O)ccc1NCC#Cc1cc2c(N[C@H]3CC[C@@H](N4CC5(COC5)C4)CC3)cccc2n1CC(F)(F)F [Compound 209A, N-(3-methoxy-4-{[3-(4-{[(1S,4S)-4-{2-oxa-6-azaspiro[3.3]heptan-6-yl}cyclohexyl]amino}-1-(2,2,2-trifluoroethyl)-1H-indol-2-yl)prop-2-yn-1-yl]amino}benzene-sulfonyl)acetamide] |
| + (+ = 0 μM ≤ SC150 < 0.05 μM) | NS(=O)(=O)c1ccc(NCC#Cc2cc3c(N[C@H]4CC[C@H](N5CC6(COC6)C5)CC4)cccc3n2CC(F)(F)F)c(OCF)c1 [Compound 261A, 3-(fluoromethoxy)-4-{[3-(4-{[(1R,4R)-4-{2-oxa-6-azaspiro[3.3]heptan-6-yl}cyclo-hexyl]amino}-1-(2,2,2-trifluoroethyl)-1H-indol-2-yl)prop-2-yn-1-yl]amino}benzene-1-sulfonamide] |

Continued, compound first:

| Structure (SMILES) | SC150 (concentration of the compound required to increase the DNA binding activity by 50%) |
| --- | --- |
| COc1cc(C(N)=O)ccc1NCC#Cc1cc2c(N[C@@H]3C[C@@H](C)O[C@@H](C)C3)cccc2n1CC(F)(F)F [Compound 1030A, 3-methoxy-4-{[3-(4-{[(2R,4S,6S)-2,6-dimethyloxan-4-yl]amino}-1-(2,2,2-trifluoroethyl)-1H-indol-2-yl)prop-2-yn-1-yl]amino}benzamide] | ++ (++ = 0.05 μM ≤ SC150 < 0.1 μM) |
| COCC(O)CN1CCC(Nc2cccc3c2cc(C#CCNc2ccc(S(C)(=O)=O)cc2OC)n3CCF)CC1 (stereo not shown) [Compound 698A, 1-(4-{[1-(2-fluoroethyl)-2-{3-[(4-methanesulfonyl-2-methoxyphenyl)amino]prop-1-yn-1-yl}-1H-indol-4-yl]amino}piperidin-1-yl)-3-methoxypropan-2-ol] | + (+ = 0 μM ≤ SC150 < 0.05 μM) |
| CN1CC[C@@H](Nc2cccc3c2cc(C#CCNC(=O)[C@@H]2C[C@H]2c2ccccc2)n3CC(F)(F)F)[C@@H](F)C1 [Compound 952A, (1R,2R)—N-[3-(4-{[(3S,4R)-3-fluoro-1-methylpiperidin-4-yl]amino}-1-(2,2,2-trifluoroethyl)-1H-indol-2-yl)prop-2-yn-1-yl]-2-phenylcyclopropane-1-carboxamide] | + (+ = 0 μM ≤ SC150 < 0.05 μM) |
| COc1cc(C(=O)NC2CCOCC2)ccc1NCC#Cc1cc2c(N[C@H]3CCN(C)C[C@H]3F)cccc2n1CC(F)(F)F (racemic) [Compound 818A, rac-4-{[3-(4-{[(3R,4S)-3-fluoro-1-methylpiperidin-4-yl]amino}-1-(2,2,2-trifluoroethyl)-1H-indol-2-yl)prop-2-yn-1-yl]amino}-3-methoxy-N-(oxan-4-yl)benzamide] | + (+ = 0 μM ≤ SC150 < 0.05 μM) |
| COCCN(C)[C@H]1CC[C@H](Nc2cccc3c2cc(C#CCNc2ccc(S(C)(=O)=O)cc2OCF)n3CC(F)(F)F)CC1 [Compound 155A, (1R,4R)—N^1-(2-(3-((2-(fluoromethoxy)-4-(methylsulfonyl)phenyl)amino)prop-1-yn-1-yl)-1-(2,2,2-trifluoroethyl)-1H-indol-4-yl)-N^4-(2-methoxyethyl)-N^4-methylcyclohexane-1,4-diamine] | + (+ = 0 μM ≤ SC150 < 0.05 μM) |
| COCC(O)CN1CCC(Nc2cccc3c2c(C)c(C#CCNc2ccc(S(C)(=O)=O)cc2OC)n3CC(F)(F)F)CC1 (stereo not shown) [Compound 676A, 1-{4-[(2-{3-[(4-methanesulfonyl-2-methoxyphenyl)amino]prop-1-yn-1-yl}-3-methyl-1-(2,2,2-trifluoroethyl)-1H-indol-4-yl)amino]piperidin-1-yl}-3-methoxypropan-2-ol] | +++ (+++ = 0.1 μM ≤ SC150 < 0.2 μM) |
| COc1cc(S(C)(=O)=O)ccc1NCC#Cc1cc2c(N[C@@H]3CCCC[C@@H]3N)cccc2n1CC(F)(F)F [Compound 28A, (1R,2S)-N^1-(2-{3-[(4-methanesulfonyl-2-methoxyphenyl)amino]prop-1-yn-1-yl}-1-(2,2,2-trifluoroethyl)-1H-indol-4-yl)cyclo-hexane-1,2-diamine] | ++ (++ = 0.05 μM ≤ SC150 < 0.1 μM) |
| COCC(O)CN1CCC(Nc2cccc3c2cc(C#CCNc2cc(S(C)(=O)=O)ccc2OC)n3CC(F)(F)F)CC1 (stereo not shown) [Compound 670A, 1-{4-[(2-{3-[(5-methanesulfonyl-2-methoxyphenyl)amino]prop-1-yn-1-yl}-1-(2,2,2-trifluoroethyl)-1H-indol-4-yl)amino]piperidin-1-yl}-3-methoxypropan-2-ol] | ++++ (++++ = 0.2 μM ≤ SC150 < 1 μM) |
| COc1cc(S(C)(=O)=O)ccc1NCC#Cc1cc2c(NC3CCN(CCC#N)CC3)cccc2n1CC(F)(F)F [Compound 686A] | + (+ = 0 μM ≤ SC150 < 0.05 μM) |
| CNC(=O)c1ccc(NCC#Cc2cc3c(N[C@H]4CC[C@@H](N5CC6(COC6)C5)CC4)cccc3n2CC(F)(F)F)c(OCCF)c1 [Compound 241A, 3-(2-fluoroethoxy)-N-methyl-4-{[3-(4-{[(1S,4S)-4-{2-oxa-6-azaspiro[3.3]heptan-6-yl}cyclohexyl]amino}-1-(2,2,2-trifluoroethyl)-1H-indol-2-yl)prop-2-yn-1-yl]amino}benzamide] | + (+ = 0 μM ≤ SC150 < 0.05 μM) |
